Measured values as given in patent US10537549B2, “Dihydroisoxazole compound for use in controlling sea lice” (Elanco Tiergesundheit AG, priority 2016, dated 2020).

Key:
[1] = test system: Lepeophtheirus Salmonis at Copepodid Stage; experiment: Activity in vitro against Lepeophtheirus salmonis at copepodid stage; settings: 1 hour contact, then 48 h in untreated sea water
Procedure: Stir a mixture of 3-[(5S)-5-(3,4,5-trichlorophenyl)-5-(trifluoromethyl)-4H-isoxazol-3-yl]-4,5,6,7-tetrahydro-2-benzothiophene-1-carboxylic acid (15.00 g, 30.08 mmol), 2-amino-N-prop-2-ynyl-acetamide (4.90 g, 33.09 mmol, HCl), 1-[bis(dimethylamino)methylene]-1H-1,2,3-triazolo[4,5-b]pyridinium 3-oxid hexafluorophosphate (13.72 g, 36.10 mmol) and N,N-diisopropylethylamine (11.66 g, 90.24 mmol) in dichloromethane (500 mL) at 25° C. for 12 hours. Use thin layer chromatography (petroleum ether:ethyl acetate=3:1, Rf=0.30) to show the reaction progress. Dilute the mixture in water (500 mL) and extract with dichloromethane (500 mL×3). Wash the organic layer with brine (500 mL), dry over sodium sulfate, filter and concentrate under reduced pressure to dryness. […]

[2] = test system: Lepeophtheirus Salmonis (copepodids, MERL resistant strain IoA-01) on Atlantic Salmon; experiment: Activity in vivo against Lepeophtheirus salmonis on Atlantic Salmon using in-feed application; settings: in-feed 5 mg/kg/day for 7 days
Procedure: Activity In Vivo Against Lepeophtheirus Salmonis on Atlantic Salmon Using in-Feed Application
60 Salmon (Atlantic Salmon, S. salar) of average weight 306.5 g are treated with medicated pellets containing the compound of Example 1 (test compound) at a dose of 5 mg/kg/day during 7 consecutive days. The medicated pellets are prepared by dry coating commercially available fish feed pellets with pre-mix containing the test compound to reach a content of […] test compound in the fish feed, sealing with 1% fish oil and administering at a 1% feeding rate. The treatment is carried out in sea water. After treatment, the fish are challenged with copepodids (the MERL resistant strain IoA-01) on 35, 100 and 150 days post-treatment. During the study the water temperature varies between 7 and 10° C. Fish weight and sea louse numbers are assessed 42, 107 and 157 days post-treatment. Counts are conducted on 30 fish at each sampling occasion.
Efficacy is determined by comparison with a negative control (placebo) group.
Efficacy is calculated using the formula: % Efficacy=100−(100×mean of treatment group/mean of control).
All fish are anaesthetized with 2-phenoxy-ethanol and examined for louse settlement under a dissecting microscope. After counting, fish are returned to the tanks.

Compound: C#CCNC(=O)CNC(=O)c1sc(C2=NO[C@@](c3cc(Cl)c(Cl)c(Cl)c3)(C(F)(F)F)C2)c2c1CCCC2 [Example 1, N-[2-oxo-2-(prop-2-ynylamino)ethyl]-3-[(5S)-5-(3,4,5-trichlorophenyl)-5-(trifluoromethyl)-4H-isoxazol-3-yl]-4,5,6,7-tetrahydro-2-benzothiophene-1-carboxamide]
- efficacy (no copepodid moves over a period of 80 seconds) ([1]; 0.5 ng/ml sea water): 100%
- minimal effective dose (MED): dose showing 100% efficacy ([1]; serial dilution): ≤ 0.5 ng/ml sea water
- % Efficacy vs placebo group (sea louse counts) ([2]; challenge 35 days post treatment (counts at 42 days)): 100%
- % Efficacy vs placebo group (sea louse counts) ([2]; challenge 100 days post treatment (counts at 107 days)): 100%
- % Efficacy vs placebo group (sea louse counts) ([2]; challenge 150 days post treatment (counts at 157 days)): 100%
